For 18 compounds, pKa, IC50 and Ki results are on record in ChEMBL document CHEMBL3739260, “Substituted 4-hydroxy-1,2,3-triazoles: synthesis, characterization and first drug design applications through bioisosteric modulation and scaffold hopping approaches” (Medchemcomm, 2015).

SMILES strings stand for the structures.

Data set [1] can be described thus: Dissociation constant, pKa of the compound. The class given is physicochemical.
The nature of data set [2]: Displacement of [3H]AMPA from AMPA receptor in rat cortical synaptosomes. The class given is subcellular. In general terms: Displacement assays read how much labelled ligand stays bound in the presence of the test substance.
A short description of data set [3]: Displacement of [3H]KA from Kainate receptor in rat cortical synaptosomes. The class given is subcellular.
The target of a further data set is Glutamate NMDA receptor. The data set is described as follows: Displacement of [3H]CGP39653 from NMDA receptor in rat cortical synaptosomes. The class given is subcellular.
Another data set deals with T1, Chitinase (Onchocerca volvulus, UniProt Q25615).
T1 sequence (Q25615 whole entry): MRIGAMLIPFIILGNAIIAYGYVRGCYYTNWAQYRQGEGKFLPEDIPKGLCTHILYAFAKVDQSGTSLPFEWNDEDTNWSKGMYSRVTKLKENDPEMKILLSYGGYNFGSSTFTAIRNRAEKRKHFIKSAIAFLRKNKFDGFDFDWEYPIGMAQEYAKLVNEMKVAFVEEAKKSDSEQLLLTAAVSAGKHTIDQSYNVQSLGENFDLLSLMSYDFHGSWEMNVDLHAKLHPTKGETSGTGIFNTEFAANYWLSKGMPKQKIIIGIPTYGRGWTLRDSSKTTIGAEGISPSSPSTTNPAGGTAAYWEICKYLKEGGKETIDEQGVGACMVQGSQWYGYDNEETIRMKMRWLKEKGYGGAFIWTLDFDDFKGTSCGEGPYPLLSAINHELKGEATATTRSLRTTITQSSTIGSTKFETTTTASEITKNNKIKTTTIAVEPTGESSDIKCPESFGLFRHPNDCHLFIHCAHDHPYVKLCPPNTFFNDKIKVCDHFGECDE
The data set is described as follows: Inhibition of Onchocerca volvulus chitinase by fluorescence based assay.

As usually defined, the pKa is the pH at which an ionisable group is half protonated. With `CCOC(=O)c1c(O)nnn1C`, the pKa in data set [1] worked out at 5.54.

Broadly, the IC50 is the midpoint of a concentration-inhibition curve. One may read the Ki as the equilibrium dissociation constant of an inhibitor or competing ligand from its target. High values mean a looser hold on the target, low ones a stronger hold on the target. In the case of `N[C@@H](Cc1nsnc1O)C(=O)O`, the half-inhibitory concentration (IC50) in data set [2] is 65 nM; in data set [3], above 100 µM. In addition, on Glutamate NMDA receptor, the Ki is above 100 µM. `CCOC(=O)c1c(O)nnn1Cc1ccccc1` returned a pKa in data set [1] of 5.38. `CCOC(=O)c1nnn(C)c1O`: in data set [1], the pKa was 6.21. Still for that read-out and setting: the same measure for `CCOC(=O)c1nonc1O`: 3.24; for `CCOC(=O)c1nsnc1O`: 4.21; for `N[C@@H](CCC(=O)O)C(=O)O` [GLUTAMIC ACID]: 4.2. In data set [1], `Cn1nnc(O)c1CC(N)C(=O)O` (racemic) came in with a pKa of 6.42. Moreover, the IC50 in data set [2] was 1400 nM; in data set [3], above 100 µM. Besides, the Ki at Glutamate NMDA receptor is above 100 µM. `CCOC(=O)c1cn(C)nc1O` displayed a pKa in data set [1] of 6.71. For `CCOC(=O)c1nn(Cc2ccccc2)nc1O`, the pKa in data set [1] amounted to 5.14. For the compound `O=C(Nc1ccc(Oc2ccccc2)cc1)c1nn(Cc2ccccc2)nc1OCc1ccccc1`, half-maximal inhibition on Chitinase (IC50) was put at 410 nM. The compound `CCOC(=O)c1nnn(Cc2ccccc2)c1O` showed a pKa in data set [1] of 6.22. As to `O=C(Nc1ccc(Oc2ccccc2)cc1)c1c(O)nnn1CC1CCCCC1`, on Chitinase, the IC50 is 5110 nM. Turning to `Cn1nnc(O)c1C(=O)Nc1ccc(Oc2ccccc2)cc1`, the midpoint of inhibition on Chitinase, the IC50, lay at 4690 nM. With `CCOC(=O)c1nn(C)nc1O`, in data set [1], the pKa stood at 5.14.

`O=C(Nc1ccc(Oc2ccccc2)cc1)c1c(OCc2ccccc2)nnn1CC1CCCCC1` displayed an IC50 on Chitinase of 520 nM.

Take `O=C(Nc1ccc(Oc2ccccc2)cc1)c1c(OCc2ccccc2)nnn1Cc1ccccc1`: on Chitinase, 410 nM corresponded to half-maximal inhibition (IC50). As for `Cn1nc(O)c(CC(N)C(=O)O)n1` (racemic), the 50% inhibitory concentration (IC50) in data set [3] was above 100 µM. On Glutamate NMDA receptor, this compound had a Ki above 100 µM.
